The results in this text go back to patent publication US12024507B2, “Compounds as GLP-1R agonists” (Terns Pharmaceuticals, Inc., priority 2021, dated 2024).

The nature of data set [1]: Metabolic stability in human hepatocytes. The settings on record: cryopreserved hepatocytes, 1×10^6 cells/mL; for CLint scaled at 1 μM: intrinsic clearance; for half-life at 1 μM: read-out: Human T1/2. It is filed as in vitro ADME. As to the method:
(§1) Test compounds were incubated in rat and human hepatocytes and stability was assessed from the substrate […] approach. Test compounds were dissolved in dimethyl sulfoxide (DMSO) to create a 10 mM Stock, and then further diluted to create a 1000×Working Stock of 1 mM with DMSO in 96-well plates for test compounds and the positive control (midazolam). Vials containing cryopreserved hepatocytes were removed from the liquid nitrogen tank and immediately immersed in a 37° C. water bath. The vials were shaken gently until the contents had thawed and were then immediately emptied into 48 mL of pre-warmed HT Medium in a 50 mL conical tube. Cells remaining in the vial were resuspended with 1.0 mL of pre-warmed HT Medium and added to the conical tube. The tube was capped and then gently inverted several times to resuspend the hepatocytes. The cell suspension was centrifuged at 50×g at room temperature for 5 minutes and the supernatant discarded. The cell pellet was loosened by gently swirling the centrifuge tube and was re-suspended in 4 mL of warm Dulbecco's Modified Eagle medium (DMEM). Cell density was determined by a cell counter by Nexcelom, and DMEM medium was added to obtain a target density of 1×10^6 cells/mL. The assay was carried out in 96-well microtiter plates. Test Compounds were incubated at 1 μM with 1×10^6 cells/mL hepatocytes in DMEM for 0, 30, 60, 120 and 240 minutes. The incubation was carried out with gentle shaking at 37° C. under a humid atmosphere of 95% air/5% CO2. The volume of the incubation mixture was 37 μL with a final 0.1% DMSO. At each of the time points, the incubation was stopped by adding 150 μL quenching solution (100% acetonitrile, 0.1% formic acid containing bucetin as an internal standard for positive ESI mode). Subsequently, the mixtures were vortexed for 20 min and centrifuged at 4,000 RPM at 10° C. The supernatant (80 μL) was transferred to a clean 96-well plate and analyzed by LC-MS/MS. Midazolam at 1 μM with a final 0.1% DMSO was included as a positive control to verify assay performance. The percent parent remaining, intrinsic and predicted hepatic clearance and t1/2 were calculated. All samples were analyzed by LC-MS/MS using an AB Sciex API 4000 instrument, coupled to a Shimadzu LC-20AD LC Pump system. Separation was achieved using a Waters Atlantis T3 dC18 reverse phase HPLC column (20 mm×2.1 mm) at a flow rate of 0.5 mL/min. The mobile phase consisted of 0.1% formic acid in water (solvent A) and 0.1% formic acid in 100% acetonitrile (solvent B). Elution conditions are detailed below.
(§2) The ion optics of each test compound were optimized for their declustering potential (DP), […] (CE), collision-cell exit potential (CXP) and used in a selected ion monitoring experiment in the positive ion mode. The peak area ratio of each test compound to internal standard was then evaluated for stability. The extent of metabolism was calculated based on the disappearance of the test compound, compared to its initial concentration. The initial rates of clearance of the test compound were calculated using the linear regression plot of semi-log % remaining of the compound versus time.
(§3) The predicted hepatic clearance (CLhep) was calculated using the well stirred method with the following formula with CLint(in vivo) normalized based on liver weight: CLint(in vivo)=CLint×Hepatocellularity×liver weight CLhep predicted=(CLint(in vivo)×Qliver)/(CLint(in vivo)+Qliver) Where Qliver ((ml/min/kg) is Liver Blood Flow
(§4) The relevant physiological parameters of liver weight, blood flow, and hepatocellularity for various species are listed below:
(§5) Results are presented in the Table B3 below for the intrinsic clearance (mL/min/kg) and half-life (t1/2).

The nature of data set [2]: Metabolic stability in rat hepatocytes. It is filed as in vitro ADME. Conditions: cryopreserved hepatocytes, 1×10^6 cells/mL; for CLint scaled at 1 μM: intrinsic clearance; for half-life at 1 μM: read-out: Rat T1/2. As to the method: as §1, §2, §3, §4, §5
The target in the next data set is T1, human GLP-1R receptor (Homo sapiens, UniProt P43220).
T1 construct: expressed in transfected cells
T1 sequence (P43220 24-463): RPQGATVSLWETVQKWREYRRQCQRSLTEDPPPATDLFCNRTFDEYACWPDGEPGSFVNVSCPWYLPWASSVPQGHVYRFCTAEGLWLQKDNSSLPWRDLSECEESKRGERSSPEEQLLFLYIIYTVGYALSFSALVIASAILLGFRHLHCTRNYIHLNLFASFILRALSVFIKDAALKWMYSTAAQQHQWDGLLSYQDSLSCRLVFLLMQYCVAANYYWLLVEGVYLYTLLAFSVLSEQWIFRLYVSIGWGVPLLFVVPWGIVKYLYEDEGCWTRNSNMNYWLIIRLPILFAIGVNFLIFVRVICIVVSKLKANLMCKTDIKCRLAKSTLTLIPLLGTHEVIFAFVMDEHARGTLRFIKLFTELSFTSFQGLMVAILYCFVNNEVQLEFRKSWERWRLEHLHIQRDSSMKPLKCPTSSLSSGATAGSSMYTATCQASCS
The experiment in a line: GLP-1R cell assay (cAMP TR-FRET, low expression CHO-K1_hGLP-1Rlow_clone10 cell line). The class given is cell-based. Conditions: CHO-K1_hGLP-1Rlow_clone10 cells, relative to control GLP-1 peptide agonist, read-out: GLP1 EC50. The protocol: Stable cell lines expressing high and low GLP-1R surface expression were generated in CHO-K1 cells transfected (Fugene 6) with a puromycin selectable DNA plasmid encoding human GLP-1R receptor (accession number: NM_002062.5) under control of an EF1A promoter. Transfected cells were seeded into 24-well plates (9,000 cells/well) containing complete medium and incubated in a humidified incubator at 37° C. with 5% carbon dioxide. After overnight incubation, medium was replaced with complete medium supplemented with puromycin (6 μg/mL) and refreshed every 2-3 days to select for stably transfected cells. Individual pools of selected cells were expanded prior to analysis for responsiveness to GLP-1 control peptide using a TR-FRET assay to detect cAMP (LANCE Ultra cAMP Assay, Perkin Elmer). Briefly, cells were collected in Versene solution, plated in 384-well plates (1,000 cells/well) and combined with serially diluted GLP-1R control peptide (10 nL) using an acoustic dispenser (ECHO). Plates were incubated for 30 minutes at 25° C. prior to the addition of EU-cAMP tracer (5 μL) and Ulight-anti-cAMP (5 μL) reagents to each well, followed by 15 minutes incubation at 25° C. TR-FRET signal was detected using an EnVision Multimode Plate Reader (excitation=320 nm; emission=615 and 655 nm). Dose-response curves were used to generate EC50 values as a measure of responsiveness to the GLP-1R control peptide. Selected cell lines were monitored for responsiveness over multiple passages to ensure stability. […] Briefly, GLP-1R expression was analyzed by flow cytometry using a fluorescein-labeled Exendin-4 peptide fluorescent probe (FLEX). Cells were harvested in Versene solution and washed 3-times with PBS+0.5% BSA before incubation with FLEX reagent (10 μM) for 2 hours at room temperature. After incubation, cells were washed 3-times in PBS+0.5% BSA before final resuspension in PBS prior to analysis by flow cytometry to measure FLEX mean fluorescence intensity (MFI) as a measure of GLP-1R expression on the cell surface.
For compound testing in the CHO-K1_hGLP-1Rlow_clone10 cell line, cells were seeded in 384-well plates (1,000 cells/well). Test compounds were serially diluted in DMSO (10-point, 3-fold dilution), added to wells using an ECHO dispenser (10 nL/well) and plates were centrifuged for 1 min and agitated for 2 min at room temperature prior to 30-minute incubation at 25° C. After incubation, Eu-cAMP (5 μL) and Ulight-anti-cAMP (5 μL) reagents were added to each well, followed by centrifugation for 1 minute, agitation for 2 minutes at room temperature, and final incubation of the plates at 25° C. for 15 minutes. Plates were read using an EnVision microplate reader (excitation=320 nm; emission=615 and 655 nm). Dose-response curves were generated from duplicate wells based on percent activation calculated relative to a control GLP-1 peptide agonist that was run in parallel. EC50 values were determined by fitting percent activation as a function of compound concentration using the Hill equation (XLfit).
The compounds tested were compound samples prepared according to the General Procedures described in the Examples section.
For orientation: Time-resolved FRET reads energy transfer from a long-lived donor to a nearby acceptor.

Molecules are shown by their SMILES.

Take `CC1(c2ccc(C#N)cc2F)Oc2cccc(C3CCN(Cc4nc5ccc(-c6nnn[nH]6)cc5n4C[C@@H]4CCO4)CC3)c2O1` (stereo partly drawn) [Compound 16, 3-fluoro-4-(2-methyl-4-(1-((1-(((S)-oxetan-2-yl)methyl)-6-(1H-tetrazol-5-yl)-1H-benzo [d]imidazol-2-yl)methyl)piperidin-4-yl)benzo[d][1,3]dioxol-2-yl)benzonitrile]: in data set [1], the CLint scaled at 1 μM was determined as 0.373 ± 0.033 L/h/kg and the half-life at 1 μM turned out to be 6.44 ± 0.571 h. Moreover, in data set [2], the CLint scaled at 1 μM came out at 0.416 L/h/kg and the half-life at 1 μM was 8 h. The EC50 at human GLP-1R receptor amounted to 0.00268 µM. Turning to `O=c1nc(-c2ccc3nc(CN4CCN(c5cccc(OCc6ccc(Br)cc6F)n5)CC4)n(C[C@@H]4CCO4)c3c2)[nH]o1` [Compound 7, (S)-3-(2-((4-(6-((4-bromo-2-fluorobenzyl)oxy)pyridin-2-yl)piperazin-1-yl)methyl)-1-(oxetan-2-ylmethyl)-1H-benzo[d]imidazol-6-yl)-1,2,4-oxadiazol-5(2H)-one], on human GLP-1R receptor, the EC50 was determined as 0.148 µM. The same measure, in the same setting: as for `O=c1cc(-c2ccc3nc(CN4CCC(c5cccc(OCc6ccc(Cl)cc6F)n5)CC4)n(C[C@@H]4CCO4)c3c2)o[nH]1` [Compound 6, (S)-5-(2-((4-(6-((4-chloro-2-fluorobenzyl)oxy)pyridin-2-yl)piperidin-1-yl)methyl)-1-(oxetan-2-ylmethyl)-1H-benzo[d]imidazol-6-yl)isoxazol-3(2H)-one], the figure is 0.0106 µM; as for `N#Cc1ccc(COc2cccc(C3CCN(Cc4nc5ccc(-c6c[nH]c(=O)o6)cc5n4Cc4cncs4)CC3)n2)c(F)c1` [Compound 12, 3-fluoro-4-(((6-(1-((6-(2-oxo-2,3-dihydrooxazol-5-yl)-1-(thiazol-5-ylmethyl)-1H-benzo[d]imidazol-2-yl)methyl)piperidin-4-yl)pyridin-2-yl)oxy)methyl)benzonitrile], 0.704 µM.

As to `N#Cc1ccc(COc2cccc(C3CCN(Cc4nc5ccc(C(=O)NO)cc5n4C[C@@H]4CCO4)CC3)n2)c(F)c1` [Compound 14, (S)-2-((4-(6-((4-cyano-2-fluorobenzyl)oxy)pyridin-2-yl)piperidin-1-yl)methyl)-N-hydroxy-1-(oxetan-2-ylmethyl)-1H-benzo[d]imidazole-6-carboxamide], at human GLP-1R receptor, the EC50 was 0.05 µM. The same measure, in the same setting: as for `N#Cc1ccc(COc2cccc(C3CCN(Cc4nc5ccc(C6=CC(=O)NC6=O)cc5n4Cc4cncs4)CC3)n2)c(F)c1` [Compound 9, 4-(((6-(1-((6-(2,5-dioxo-2,5-dihydro-1H-pyrrol-3-yl)-1-(thiazol-5-ylmethyl)-1H-benzo[d]imidazol-2-yl)methyl)piperidin-4-yl)pyridin-2-yl)oxy)methyl)-3-fluorobenzonitrile], the figure is 0.461 µM. Same read-out and setting: as for `N#Cc1ccc(COc2cccc(C3CCN(Cc4nc5ccc(C6(O)COC6)cc5n4Cc4cncs4)CC3)n2)c(F)c1` [Compound 15, 3-fluoro-4-(((6-(1-((6-(3-hydroxyoxetan-3-yl)-1-(thiazol-5-ylmethyl)-1H-benzo[d]imidazol-2-yl)methyl)piperidin-4-yl)pyridin-2-yl)oxy)methyl)benzonitrile], the figure is over 10 µM. Consider `N#Cc1ccc(COc2cccc(C3CCN(Cc4nc5ccc(-c6nnn[nH]6)cc5n4Cc4cncs4)CC3)n2)c(F)c1` [Compound 11, 4-(((6-(1-((6-(1H-tetrazol-5-yl)-1-(thiazol-5-ylmethyl)-1H-benzo[d]imidazol-2-yl)methyl)piperidin-4-yl)pyridin-2-yl)oxy)methyl)-3-fluorobenzonitrile], for which, in data set [1], the CLint scaled at 1 μM is 1.18 ± 0.024 L/h/kg and the half-life at 1 μM came to 2.03 ± 0.041 h. Besides, in data set [2], the CLint scaled at 1 μM was found to be 4.1 ± 0.151 L/h/kg and the half-life at 1 μM was determined as 0.812 ± 0.03 h. In addition, at human GLP-1R receptor, the EC50 amounted to 0.0532 µM.

For the compound `CS(=O)(=O)NC(=O)c1ccc2nc(CN3CCN(c4cccc(OCc5ccc(C#N)cc5F)n4)CC3)n(Cc3ncco3)c2c1` [Compound 4, 2-((4-(6-((4-cyano-2-fluorobenzyl)oxy)pyridin-2-yl)piperazin-1-yl)methyl)-N-(dioxo-l5-sulfaneyl)-1-(oxazol-2-ylmethyl)-1H-benzo[d]imidazole-6-carboxamide], at human GLP-1R receptor, the EC50 came to 0.231 µM. The same measure, in the same setting: the result for `N#Cc1ccc(COc2cccc(C34CCN(Cc5nc6ccc(-c7nnn[nH]7)cc6n5Cc5cncs5)CC3C4)n2)c(F)c1` (centres unmarked) [Compound 10, 4-(((6-(3-((6-(1H-tetrazol-5-yl)-1-(thiazol-5-ylmethyl)-1H-benzo[d]imidazol-2-yl)methyl)-3-azabicyclo[4.1.0]heptan-6-yl)pyridin-2-yl)oxy)methyl)-3-fluorobenzonitrile] reads 0.118 µM. `N#Cc1ccc(COc2cccc(N3CCN(Cc4nc5ccc(C(=O)NCC(F)(F)F)cc5n4Cc4ncco4)CC3)n2)c(F)c1` [Compound 3, 2-((4-(6-((4-cyano-2-fluorobenzyl)oxy)pyridin-2-yl)piperazin-1-yl)methyl)-1-(oxazol-2-ylmethyl)-N-(2,2,2-trifluoroethyl)-1H-benzo[d]imidazole-6-carboxamide]: the EC50 at human GLP-1R receptor was 5.94 µM.

Turning to `N#Cc1ccc(COc2cccc(C3CCN(Cc4nc5ccc(-c6nc(=O)o[nH]6)cc5n4C[C@@H]4CCO4)CC3)n2)c(F)c1` [Compound 5, (S)-3-fluoro-4-(((6-(1-((1-(oxetan-2-ylmethyl)-6-(5-oxo-2,5-dihydro-1,2,4-oxadiazol-3-yl)-1H-benzo[d]imidazol-2-yl)methyl)piperidin-4-yl)pyridin-2-yl)oxy)methyl)benzonitrile], the EC50 at human GLP-1R receptor was found to be 0.0454 µM.

One may read the CLint scaled as a measure of how fast metabolising enzymes remove a compound, apart from limits set by blood flow. The term EC50 denotes the concentration giving half of the maximal effect.
